Results published in US20260317319A1, “NOVEL ERGOLINES AND METHODS OF TREATING MOOD DISORDERS” (Gilgamesh Pharma Inc., priority 2023, published 2026).
pEC50, pKi: −log10 of the molar value. Read-outs that look alike come from different tables or passages of the source.

Assays:
in vitro [1] = assay type: in vitro ADME, human; details: HLM 0.50 mg/mL, NADPH 1 mM, 1 μM compound, pH 7.4, 37° C., 60 min
5-HT2B receptor [2] = target: T1, 5-HT2B receptor (Homo sapiens, UniProt P41595); test: cell-based; assay type: cell-based; details: Ca2+ flux; for 5-HT2B % Act @ Max Dose / Emax: HEK293, max dose; for Emax: HEK293, agonist, read-out: 5-HT2B % Act @ Max Dose
T1 construct: expressed in transfected cells; host or cells: HEK293, stably transfected
How it was run: (§1)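 FLIPR Tetra fluorescence read-out of calcium flux after compound addition. Receptor-expressing stable lines were used (HEK293 for 2A/2B; CHO with Gα15 for 1A), dye-loaded with Fluo-4 Direct and 2.5 mM final probenecid, 50 min at 37 °C.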

5-HT1A receptor = target: T2, 5-HT1A receptor (Homo sapiens, UniProt P08908); test: cell-based; details: agonist, Ca2+ flux; for Emax: CHO, read-out: 5-HT1A % Act @ Max Dose
T2 construct: expressed in transfected cells; host or cells: CHO cells, stably transfected
T2 sequence (P08908 1-422): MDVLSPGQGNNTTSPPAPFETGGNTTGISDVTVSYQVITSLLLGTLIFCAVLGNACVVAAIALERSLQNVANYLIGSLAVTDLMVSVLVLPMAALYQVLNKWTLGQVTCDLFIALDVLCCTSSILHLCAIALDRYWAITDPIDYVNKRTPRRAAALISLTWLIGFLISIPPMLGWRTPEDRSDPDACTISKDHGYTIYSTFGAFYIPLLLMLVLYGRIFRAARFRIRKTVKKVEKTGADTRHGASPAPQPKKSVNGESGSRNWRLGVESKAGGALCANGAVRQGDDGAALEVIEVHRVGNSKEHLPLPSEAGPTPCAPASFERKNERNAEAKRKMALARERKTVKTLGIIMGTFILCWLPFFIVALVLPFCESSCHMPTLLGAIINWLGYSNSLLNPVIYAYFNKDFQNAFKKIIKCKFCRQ
How it was run: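 Receptor agonism was assessed as intracellular calcium mobilization in stably transfected cells, with CHO cells additionally carrying Gα15 for the 5-HT1A readout. Calcium was monitored with Fluo-4 Direct dye.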

C57BL/6 mice = test: Automated mouse head twitch response (HTR) assay (video tracking); assay type: in vivo; details: sc; for # HTR/20 min at Most Efficacious Dose: 20 min recording, at each compound's most efficacious dose (35*, 43*, 44*: suppressed below vehicle 14.5, dose is that of least suppression); for # HTR/20 min at Most Efficacious Dose / Peak HTR/min at Most Efficacious Dose: mean; for Most Efficacious Dose for Peak HTR/min: dose giving highest peak HTR/min (35*, 43*, 44*: dose that resulted in the least suppression); for Most Efficacious Dose for # HTR/20 min: dose giving most HTR/20 min (35*, 43*, 44*: dose that resulted in the least suppression); for Peak HTR/min at Most Efficacious Dose: rate over 2-min bins, at each compound's most efficacious dose (35*, 43*, 44*: suppressed below vehicle 1.62, dose is that of least suppression)
Procedure: Disclosed compounds were tested for their ability to induce a head twitch response (HTR) in mice using an automated video tracking procedure, with the results summarized in Table 8 and FIG. 4.
Animals. Adult male C57BL/6 mice aged 8-10 weeks (Jackson Labs, Bar Harbor, ME; body weight 18-25 g) were used in this experiment. Animals were group housed under environmentally controlled temperatures and 12-hour light/dark cycles (lights on between 06:00-18:00 h), with ad libitum food and water. Mice were habituated to the facility for at least 5 days prior to testing. All animal procedures were approved by the local IACUC and conducted in accordance with the NIH Guide for the Care and Use of Laboratory Animals.
Procedure. Mice were administered one dose of the drug and immediately placed into a small open field for behavioral observation. High-speed video of animals' behavior was captured continuously for 20 min. Video recordings were imported into an image processing software, which detects multiple points of interest on each animal's body, including the left and right ear. HTR events were defined as periodic deviations of ear locations from temporally averaged ear locations. Predefined thresholds for magnitude and frequency of location deviations were used to filter HTR events from random head movements. The method was validated by comparing detected events with manual (human) observations and found to have an accuracy >95%. The total number of HTR events counted during the 20-min recording and the rate in HTR/min calculated over 2-min bins were determined for each animal at each dose.
Statistical Analysis. The data points shown are the mean±standard error of the mean (SEM).

5-HT2B receptor [3] = target: T1, 5-HT2B receptor; test: 5-HT2B receptor radioligand binding ([3H]LSD)
5-HT2A receptor [4] = target: T3, 5-HT2A receptor (Homo sapiens, UniProt P28223); test: cell-based; assay type: cell-based; details: for 5-HT2A Arrestin % Act @ Max Dose / Emax: max dose; for Emax: read-out: 5-HT2A Arrestin % Act @ Max Dose
How it was run: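 Agonist activity expressed as percent of maximal control ligand signal after vehicle subtraction, from chemiluminescence (RLU). Cells carry ProLink-tagged 5-HT2A plus β-arrestin fused to β-gal deletion mutant; ligand-driven arrestin binding restores β-galactosidase activity (PathHunter). Cells pre-incubated at 37° C.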

5-HT2C receptor = target: T4, 5-HT2C receptor (Homo sapiens, UniProt P28335); test: cell-based; details: for Emax: read-out: 5-HT2C % Act @ Max Dose
T4 sequence (P28335 33-458): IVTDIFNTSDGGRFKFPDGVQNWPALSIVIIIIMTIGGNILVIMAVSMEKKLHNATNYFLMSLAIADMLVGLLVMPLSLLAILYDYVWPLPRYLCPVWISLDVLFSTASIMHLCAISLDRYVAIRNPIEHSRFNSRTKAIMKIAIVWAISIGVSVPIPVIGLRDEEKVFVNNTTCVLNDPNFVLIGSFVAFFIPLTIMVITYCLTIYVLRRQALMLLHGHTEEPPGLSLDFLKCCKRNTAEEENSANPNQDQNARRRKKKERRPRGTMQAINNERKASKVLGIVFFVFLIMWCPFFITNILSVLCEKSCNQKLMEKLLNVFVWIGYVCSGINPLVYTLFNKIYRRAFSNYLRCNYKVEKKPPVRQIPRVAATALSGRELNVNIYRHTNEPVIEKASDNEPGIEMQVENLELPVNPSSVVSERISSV

5-HT1B receptor = target: T5, 5-HT1B receptor (Homo sapiens, UniProt P28222); test: cAMP accumulation functional assay at 5-HT1B; assay type: cell-based; details: agonist, cAMP accumulation; for Emax: read-out: 5-HT1B % Act @ Max Dose
T5 construct: expressed in transfected cells
How it was run: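 Stably transfected human 5-HT1B cells were incubated 60 min at room temperature, after which detection reagent was applied for another 60 min at RT. The read-out was cAMP accumulation, used as a measure of agonist activity.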

5-HT2A receptor [5] = target: T3, 5-HT2A receptor; test: cell-based; assay type: cell-based; set-up: expressed in transfected cells; host or cells: HEK293, stably transfected; details: for Emax: HEK293, agonist, read-out: 5-HT2A % Act @ Max Dose
How it was run: as §1

5-HT2A receptor [6] = target: T3, 5-HT2A receptor; test: biochemical; assay type: binding; set-up: expressed in transfected cells; host or cells: HEK293, stably transfected
How it was run: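 Values reflect [^3H]ketanserin binding competition. Assay conditions were adapted from the literature.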

in vitro [7] = assay type: in vitro ADME, mouse; details: MLM (male CD-1) 0.50 mg/mL, NADPH 1 mM, 1 μM compound, pH 7.4, 37° C., 60 min
Text: MLM Stability Pooled MLM from male CD-1 mice (BIOIVT M00501) were used.

in vitro [8] = assay type: in vitro ADME, rat; details: RLM (male Sprague-Dawley) 0.50 mg/mL, NADPH 1 mM, 1 μM compound, pH 7.4, 37° C., 60 min
Text: RLM Stability Pooled RLM from male Sprague-Dawley rats (Xenotech R1000) were used.

[9] = agonist, beta-arrestin recruitment
[10] = agonist, Ca2+ flux, Eurofins DiscoverX protocol, max dose
[11] = agonist, beta-arrestin recruitment, PathHunter, read-out: 5-HT2A Arrestin EC50
[12] = agonist, Ca2+ flux, Eurofins DiscoverX protocol, read-out: 5-HT2C EC50

T1 sequence (P41595 whole entry): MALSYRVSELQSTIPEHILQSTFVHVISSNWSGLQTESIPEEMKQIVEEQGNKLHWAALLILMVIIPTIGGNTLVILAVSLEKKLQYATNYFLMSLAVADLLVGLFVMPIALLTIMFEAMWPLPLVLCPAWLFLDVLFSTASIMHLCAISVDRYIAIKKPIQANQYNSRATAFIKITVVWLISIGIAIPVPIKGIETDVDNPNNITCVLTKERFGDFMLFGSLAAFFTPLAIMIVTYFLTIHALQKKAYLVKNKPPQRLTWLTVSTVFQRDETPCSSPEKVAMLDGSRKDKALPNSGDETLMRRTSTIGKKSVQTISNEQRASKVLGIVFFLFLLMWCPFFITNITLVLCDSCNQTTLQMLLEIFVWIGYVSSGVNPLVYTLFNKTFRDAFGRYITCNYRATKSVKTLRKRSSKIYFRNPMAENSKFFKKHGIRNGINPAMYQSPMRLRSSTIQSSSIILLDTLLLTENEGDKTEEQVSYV
T5 sequence (P28222 whole entry): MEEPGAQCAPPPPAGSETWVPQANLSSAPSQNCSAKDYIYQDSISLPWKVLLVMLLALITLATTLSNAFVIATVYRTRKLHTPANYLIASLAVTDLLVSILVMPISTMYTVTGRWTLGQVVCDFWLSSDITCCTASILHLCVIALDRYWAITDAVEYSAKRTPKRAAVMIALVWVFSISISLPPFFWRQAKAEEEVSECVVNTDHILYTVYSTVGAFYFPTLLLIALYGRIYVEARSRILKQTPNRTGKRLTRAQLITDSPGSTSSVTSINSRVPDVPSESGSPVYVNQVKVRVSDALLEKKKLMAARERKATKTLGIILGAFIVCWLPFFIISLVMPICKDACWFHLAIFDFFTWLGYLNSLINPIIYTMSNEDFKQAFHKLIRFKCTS
T3 sequence (P28223 whole entry, the tested form may be a part): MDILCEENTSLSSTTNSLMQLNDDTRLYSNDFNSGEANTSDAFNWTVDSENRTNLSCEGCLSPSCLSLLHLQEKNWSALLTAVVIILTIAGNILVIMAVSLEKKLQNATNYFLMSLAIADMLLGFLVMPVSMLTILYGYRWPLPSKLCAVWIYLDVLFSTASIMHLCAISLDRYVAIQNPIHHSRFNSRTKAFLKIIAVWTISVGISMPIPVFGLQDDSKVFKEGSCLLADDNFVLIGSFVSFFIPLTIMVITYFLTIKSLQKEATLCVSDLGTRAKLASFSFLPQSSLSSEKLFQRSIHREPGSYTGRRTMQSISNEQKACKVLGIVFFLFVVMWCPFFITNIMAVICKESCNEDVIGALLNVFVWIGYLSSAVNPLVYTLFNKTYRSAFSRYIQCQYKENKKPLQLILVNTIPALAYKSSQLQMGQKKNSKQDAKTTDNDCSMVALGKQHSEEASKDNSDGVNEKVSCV

Row | Structure (SMILES) | Intrinsic clearance (Clint) (in vitro [1]) | half-life (t1/2) (in vitro [1]) | 5-HT2B % Act @ Max Dose (5-HT2B receptor [2]; agonist) | # HTR/20 min at Most Efficacious Dose (C57BL/6 mice) | Most Efficacious Dose for Peak HTR/min (C57BL/6 mice) | Most Efficacious Dose for # HTR/20 min (C57BL/6 mice) | Peak HTR/min at Most Efficacious Dose (C57BL/6 mice) | 5-HT2A Arrestin % Act @ Max Dose (5-HT2A receptor [4]; [9]) | Emax (5-HT2B receptor [2]) | Emax (5-HT1B receptor; max dose) | Emax (5-HT1A receptor; CHO cells with Gα15, max dose) | Emax (5-HT2A receptor [5]; Ca2+ flux, HEK293, max dose) | pKi (5-HT2B receptor [3]; read-out: 5-HT2B Receptor Ki) | pEC50 (5-HT2A receptor [4]; [11]) | Emax (5-HT2A receptor [4]; [9]) | Emax (5-HT2C receptor; [10]) | pEC50 (5-HT2C receptor; [12]) | further results
1 | CCN(CC)C(=O)[C@@H]1C=C2c3cccc4[nH]c(Br)c(c34)C[C@H]2N(C)C1 [Compound 35, (6aR,9R)-5-bromo-N,N-diethyl-7-methyl-4,6,6a,7,8,9-hexahydroindolo[4,3-fg]quinoline-9-carboxamide] | 57.4 µL/min/mg | 0.403 h | -0.13% | 2.38 HTR/20 min | (0.1) mg/kg, sc | (0.1) mg/kg, sc | 0.56 HTR/min | 30.94% | – | – | – | – | – | – | – | – | – | pEC50 (5-HT1A receptor; CHO cells with Gα15): < 4.00; 5-HT1A % Act @ Max Dose (5-HT1A receptor; CHO cells with Gα15, max dose): 11.94%; pKi (5-HT2B receptor [3]): 8.30; pEC50 (5-HT2A receptor [4]): 8.78; pEC50 (5-HT2C receptor): < 5.00; 5-HT2C % Act @ Max Dose (5-HT2C receptor; [10]): 0%
2 | CCN(CC)C(=O)[C@@H]1C=C2c3cccc4[nH]c(Br)c(c34)C[C@H]2N(CCC(F)(F)F)C1 [Compound 42, (6aR,9R)-5-bromo-N,N-diethyl-7-(3,3,3-trifluoropropyl)-4,6,6a,7,8,9-hexahydroindolo[4,3-fg]quinoline-9-carboxamide] | – | – | – | – | – | – | – | – | 2.58% | 33.1% | 9.13% | 8.29% | 6.62 | 7.80 | 49.4% | 17.9% | < 5.00 | agonist activity at any of the serotonin receptors tested (5-HT2A receptor [5]; functional assays at 5-HT2A, 2B, 2C, 1A, 1B): no agonist activity at any of the receptors tested; potency in receptor binding (5-HT2A receptor [6]; radioligand binding, 5-HT2A): potent binding to 5-HT2A
3 | CC[C@@H](C)NC(=O)[C@@H]1C=C2c3cccc4[nH]c(Br)c(c34)C[C@H]2N(C)C1 [Compound 43, (6aR,9R)-5-bromo-N—((R)-sec-butyl)-7-methyl-4,6,6a,7,8,9-hexahydroindolo[4,3-fg]quinoline-9-carboxamide] | – | – | – | 6.5 HTR/20 min | – | (0.1) mg/kg, sc | 1 HTR/min | – | 1% | 83.8% | 6.3% | 39.3% | 8.02 | 8.65 | 51.8% | 3.13% | < 5.00 | –
4 | CCC(CC)NC(=O)[C@@H]1C=C2c3cccc4[nH]c(Br)c(c34)C[C@H]2N(C)C1 [Compound 44, (6aR,9R)-5-bromo-N-(pentan-3-yl)-7-methyl-4,6,6a,7,8,9-hexahydroindolo[4,3-fg]quinoline-9-carboxamide] | – | – | – | 4.38 HTR/20 min | (3.2) mg/kg, sc | (1) mg/kg, sc | 0.93 HTR/min | – | 15.7% | 68.5% | 16.6% | 29.9% | 8.03 | 8.77 | 40.7% | 40% | 5.31 | –
5 | CCC[C@@H](C)NC(=O)[C@@H]1C=C2c3cccc4[nH]c(Br)c(c34)C[C@H]2N(C)C1 [Compound 45, (6aR,9R)-5-bromo-N—((R)-pentan-2-yl)-7-methyl-4,6,6a,7,8,9-hexahydroindolo[4,3-fg]quinoline-9-carboxamide] | – | – | – | – | – | – | – | – | -0.31% | 87.1% | 12.5% | 22.3% | 8.44 | 8.37 | 45.3% | 22.1% | < 5.00 | –
6 | CCN(CC)C(=O)[C@@H]1C=C2c3cccc4[nH]cc(c34)C[C@H]2NC1 [Compound 83] | <9.6 µL/min/mg | >2.42 h | 69.27% | 29.625 HTR/20 min | (10) mg/kg, sc | (3.2) mg/kg, sc | 3.625 HTR/min | 88.78% | – | – | – | – | – | 8.57 | – | – | – | pEC50 (5-HT2B receptor [2]; agonist, HEK293): 7.65; pEC50 (5-HT1B receptor): 7.56; 5-HT1B % Act @ Max Dose (5-HT1B receptor; max dose): 88.07%; pEC50 (5-HT2A receptor [5]; agonist, Ca2+ flux, HEK293): 8.77; 5-HT2A % Act @ Max Dose (5-HT2A receptor [5]; agonist, Ca2+ flux, HEK293, max dose): 107.11%; pKi (5-HT2B receptor [3]; [3H]LSD 2 nM, HEK293 stable cell line, 1 h, 25 °C, read-out: 5-HT2B Receptor Ki): 6.94; Intrinsic clearance (Clint) (in vitro [7]): 12.6 µL/min/mg; half-life (t1/2) (in vitro [7]): 1.835 h; Intrinsic clearance (Clint) (in vitro [8]): 15.3 µL/min/mg; half-life (t1/2) (in vitro [8]): 1.51 h; pKi (5-HT2A receptor [6]; [3H]ketanserin 1 nM, HEK293 stable cell line, 1 h, 25 °C): 8.25
